Patent publication US4762848A, “1,3-thiazoles and their use as immunomodulators” (Hoechst Aktiengesellschaft, priority 1985, dated 1988)

How the values were obtained:
DTH reaction (SRBC) = assay: Stimulation of the DTH reaction, relative to the compound from Example 7; format: in vivo, NMRI mice; conditions: 200 mg/kg, 1 × i.p. day 0; Example 7 = 100%
Method: Either 10^6 or 10^9 red blood cells from sheep were administered intravenously to each animal in groups of 5 female NMRI mice weighing 18-20 g. Sheep erythrocytes are regarded in immunology as a standard test substance (antigen) for the induction of cellular and humoral immune reactions. In particular, this test provides information about the functioning of the T-cell-dependent component (T-helper cells) of the immune system. The test substance obtained as in exemplary embodiment 7 ([2-(3-carboxy-1-propylthio)-4 -methyl-1,3-thiazol-5-yl]acetic acid) was administered intraperitoneally and perorally, respectively, […], each animal received 2×10^8 sheep erythrocytes injected into the underside of the foot and, 24 hours later, the swelling of the foot was measured. The foot swelling is induced by a skin reaction of the delayed type (delayed type hypersensitivity, DTH) and is, as is known to the expert, a measure of the cellular immune response (Collins, F. M. and Mackaness, G. B., J. Immunol. 101, 830-845, 1968). The results compiled in Table 1 illustraste that there is an increase in the cellular immune response owing to the administration of the subst nce obtained according to the invention, for example after imnunization with 10^6 or 10^9 sheep erythrocytes. An optimum stimulation can be observed in this experimental design on administration of 20-40 mg/kg test substance.
NMRI mice were treated with the substances according to the invention as described in experiment 1.
The DTH reaction was checked as a test to determine the immunostimulation.
It can be seen from the table that the DTH reaction in the animals pretreated with the test substances is more pronounced than in the corresponding control animals.

macrophages = assay: Stimulation of macrophage activity (chemiluminescence), relative to the compound from Example 7; format: in vivo, NMRI mice; conditions: 100 mg/kg, 1 × i.p. day 0; relative to Example 7 = 100%
Method: (§1) This entailed investigation of the effect of the test substance obtained as in exemplary embodiment 7 on the stimulation of peritoneal macrophages in 6-8 week old NMRI mice. Female mice received the test substance in parenteral or oral doses of 25 mg/kg, 50 mg/kg, 100 mg/kg and 200 mg/kg. Buffered saline solution was administered to a control group. The mice were sacrificed three days after the injections, and the peritoneal macrophages of the animals were examined for their state of activation. The secretion of the lysosomal enzymes (β-galactosidase, β-glucuronidase and N-acetyl-β-D-glucosaminidase) was determined as one measure of macrophage activation. […] The level of oxidative metabolism in macrophages is taken as another measure of their state of activation. This activity is measured with the assistance of a biolumate by determination of the chemiluminescence.
(§2) For this purpose, either 3×10^6 macrophages were cultured with 1 ml of TC 199 culture medium in Petri dishes of diameter 30 mm or 10^6 macrophages were cultured with 100 μl of medium in round-bottomed polyethylene tubes (for determination of the chemiluminescence), with 5% CO2 and at 37° C.
(§3) After incubation for one hour, the cultures were washed to remove floating cells. The chemiluminescence (tube culture) was then determined directly, whereas the Petri dishes were incubated for a further 24 hours at 37° C. and then the enzyme and pinocytosis activities in the cultures were determined.
NMRI mice were treated with the compounds according to the invention as described in experiment 2.
The macrophage function (chemiluminescence and enzyme activity) was checked as a test to determine the immunostimulation.
It can be seen from the table that in comparison with macrophages from untreated animals, the chemiluminescence reaction of these cells was also greatly stimulated by all the test substances, and their content of lysosomal enzymes was markedly raised.

[1] = test system: mouse peritoneal macrophages; assay: Pinocytosis of colloidal gold (198Au) by peritoneal macrophages of treated mice; format: in vivo, NMRI mice
Method: as §1, §2, §3
The quantitative determination of the pinocytosis activity of mononuclear phagocytes was carried out by the method of Davies et al. (Davies, P., Allison, A. C. and Haswell, A. D.; Biochem. Biophys. Res. Com. 52, 627, 1973). Radioactive colloidal gold (^198 Au) with a particle size of 20 nm and a specific activity of 4-12 mCi/mg of Au was used for this. The results in Table 4 illustrate the effect of the test substance obtained as in Example 7 on the efficiency of endocytosis.

Candida albicans = assay: Therapeutic treatment of chronic Candida albicans infection; format: in vivo, female Balb/c mice infected with Candida albicans; conditions: for Urine infected with C. albicans d19 / Urine infected with C. albicans d24 / Kidneys infected with C. albicans / Necrotic kidneys: days 3-15; for Urine infected with C. albicans d19: day 19; for Urine infected with C. albicans d24: day 24; for Kidneys infected with C. albicans / Necrotic kidneys: day 26
Method: Increase in the Resistance of Balb/c Mice to Infection with Candida albicans
(a) Therapeutic treatment
For the therapeutic treatment of chronic Candida albicans infection, female Balb/c mice (16/group) were infected intravenously with Candida albicans (2.5×10^5 cfu/mouse) (day 0). After the infection had taken place, the animals were treated intraperitoneally on 13 consecutive days (days 3-15) with the test substance obtained as in Example 7; the concentrations were 0.5, 2.0, 5.0, 10.0, 30.0 and 60.0 mg/kg. The control animals received administrations of physiological saline solution. Urine was collected from the animals on days 19 and 24, and the organism count was determined. On day 26, the animals were sacrificed, and the organism count and the necroses in the kidneys were determined.

## Cc1nc(SCCCC(=O)O)sc1CC(=O)O [Example 7, [2-(3-Carboxy-1-propylthio)-4-methyl-1,3-thiazol-5-yl]acetic acid]
DTH reaction (SRBC)
  DTH reaction (SRBC), relative activity: 100%
macrophages
  Macrophage activity: Chemiluminescence, relative activity: 100%
[1]; 25 mg/kg, 1 × intraperitoneal
  efficiency of pinocytosis of mouse macrophages: 0.415 × 10^3 cpm
[1]; 25 mg/kg, 1 × oral
  efficiency of pinocytosis of mouse macrophages: 0.365 × 10^3 cpm
[1]; 50 mg/kg, 1 × intraperitoneal
  efficiency of pinocytosis of mouse macrophages: 0.558 × 10^3 cpm
[1]; 50 mg/kg, 1 × oral
  efficiency of pinocytosis of mouse macrophages: 0.448 × 10^3 cpm
[1]; 100 mg/kg, 1 × intraperitoneal
  efficiency of pinocytosis of mouse macrophages: 0.718 × 10^3 cpm
[1]; 100 mg/kg, 1 × oral
  efficiency of pinocytosis of mouse macrophages: 0.661 × 10^3 cpm
[1]; 200 mg/kg, 1 × intraperitoneal
  efficiency of pinocytosis of mouse macrophages: 0.862 × 10^3 cpm
[1]; 200 mg/kg, 1 × oral
  efficiency of pinocytosis of mouse macrophages: 0.739 × 10^3 cpm
Candida albicans; 0.5 mg/kg i.p.
  Urine infected with C. albicans d19: 0%
  Urine infected with C. albicans d24: 6%
  Kidneys infected with C. albicans: 27%
  Necrotic kidneys: 27%
Candida albicans; 2.0 mg/kg i.p.
  Urine infected with C. albicans d19: 6%
  Urine infected with C. albicans d24: 6%
  Kidneys infected with C. albicans: 13%
  Necrotic kidneys: 7%
Candida albicans; 5.0 mg/kg i.p.
  Urine infected with C. albicans d19: 0%
  Urine infected with C. albicans d24: 7%
  Kidneys infected with C. albicans: 27%
  Necrotic kidneys: 47%
Candida albicans; 10.0 mg/kg i.p.
  Urine infected with C. albicans d19: 7%
  Urine infected with C. albicans d24: 21%
  Kidneys infected with C. albicans: 29%
  Necrotic kidneys: 43%
Candida albicans; 60.0 mg/kg i.p.
  Urine infected with C. albicans d19: 13%
  Urine infected with C. albicans d24: 13%
  Kidneys infected with C. albicans: 38%
  Necrotic kidneys: 31%
Candida albicans; therapeutic i.p. treatment, mice
  dose for optimal action in chronic Candida albicans infection: 0.5 to 5.0 mg/kg
